Values joined by “and” are separate entries in the source; they are usually repeats but may differ in a detail not shown here. Identical values can stand only once. Like-named read-outs stand apart in the source and are kept apart here.
Experiments:
Type in all cases: in vivo
[1] = tested on: rabbit eye; assay: Clinical evaluation by slit lamp (clinical score), rabbit paracentesis model; design: key to Clinical Score −180 min / Clinical Score −5 min / Clinical Score +115 min: 0: normal; 1: discrete dilatation of iris and conjunctival vessels; 2: moderate dilatation of iris and conjunctival vessels; 3: intense iridal hyperemia with flare in the anterior chamber; 4: intense iridal hyperemia with flare in the anterior chamber and presence of fibrinous exudates; conditions: for Clinical Score −5 min: 5 min before the first paracentesis; for Clinical Score −5 min / Clinical Score +115 min / Clinical Score −180 min: individual eyes; for Clinical Score +115 min: 5 min before the second paracentesis; for Clinical Score −180 min: basal
[2] = tested on: protein concentration in the aqueous humor; assay: Protein measurement in aqueous humor, rabbit paracentesis model; conditions: for Protein in aqueous humor, Mean / Protein in aqueous humor: second paracentesis; for Protein in aqueous humor: individual eyes
Experimental: (§1) Each rabbit was placed in a restraint device and tagged with the alphanumeric code. The formulations were instilled (50 μl) into the conjunctival sac of both eyes 180, 120, 90 and 30 min before the first paracentesis; then 15, 30, 90 min after the first paracentesis. To perform the first paracentesis the animals were anaesthetized by intravenous injection of 5 mg/kg Zoletil® (Virbac; 2.5 mg/kg tiletamine HCl and 2.5 mg/kg zolazepam HCl) and one drop of local anesthetic (Novesina®, Novartis) was administered to the eye. Anterior chamber paracentesis was performed with a 26 G needle attached to a tuberculin syringe; the needle was introduced into the anterior chamber through the cornea, taking care not to damage the tissues. Two hours after the ® first paracentesis, the animals were sacrificed with 0.4 ml Tanax® (Intervet International B.V.) and the second paracentesis was performed. About 100 μl of aqueous humor were removed at the second paracentesis. Aqueous humor was immediately split in four aliquots and stored at −80° C. until analysis. Then both eyes were enucleated and the iris-ciliary body was carefully excised, placed in polypropylene tubes, and stored at −80° C. until analysis.
For protein concentration determination in the aqueous humor we used the Protein Quantification Kit (Fluka; Cat. No. 77371; Lot. No. 1303129). Five microliters of aqueous humor were diluted to 100 μl with water. Twenty microliters of samples and of standards were load into a 96-well plate and recorded in a plate layout. Samples were treated following the assay procedure described in the kit. A microplate reader (GDV, Italy; model DV 990 B/V6) set at 670 nm was used for making the calibration and analyzing the samples.
(§2) Pupillary diameter, PGE2, protein, PMN, and MPO were expressed as mean±SEM. Statistical analysis was performed using one way ANOVA followed by a Newman-Keuls post hoc test. Clinical score was expressed as % of eyes and the statistical analysis was performed using Kruskal-Wallis followed by a Dunn post hoc test. P<0.05 was considered statistically significant in both cases. Prism 4 software (GraphPad Software, Inc.) was used for the analysis and graphs.

[3] = tested on: rabbit eye; assay: Pupillary diameter measurement, rabbit paracentesis model; conditions: individual eyes; for Pupillary diameter T2: −5 min: 5 min before the first paracentesis; for Pupillary diameter T3: +115 min: 5 min before the second paracentesis; for Pupillary diameter Δ(T3 − T1): +115 min minus −180 min; for Pupillary diameter T1: −180 min: basal
Experimental: as §1
The pupillary diameter of both eyes was measured with a Castroviejo caliper 180 min and 5 min before the first paracentesis and 5 min before the second paracentesis.
as §2

[4] = tested on: PGE2 in the aqueous humor; assay: Prostaglandin E2 (PGE2) measurement in aqueous humor, rabbit paracentesis model; conditions: for PGE2 in aqueous humor, statistical significance versus CTR: p<0.05; for PGE2 in aqueous humor, Mean / PGE2 in aqueous humor: second paracentesis; for PGE2 in aqueous humor: individual eyes
Experimental: as §1
For the quantitative determination of PGE2 in the aqueous humor we used the PGE2 Immunoassay kit (R&D Systems; Cat. No. KGE004; Lot. No. 240010). Eleven microliters or 16 μl of aqueous humor were diluted to 110 μl or 160 μl with the calibrator diluent solution provided with the kit. One hundred microliters of samples and of standards were load into a 96-well plate and recorded in a plate layout. Samples were treated following the assay procedure described in the kit. A microplate reader (GDV, Italy; model DV 990 B/V6) set at 450 nm (wavelength correction at 540 nm) was used for making the calibration and analyzing the samples.
as §2

[5] = tested on: Myeloperoxidase (MPO); assay: Myeloperoxidase (MPO) activity in iris-ciliary body, rabbit paracentesis model; conditions: for MPO Unit/g: iris-ciliary body samples collected after the second paracentesis, individual eyes (DX/SX); for MPO activity in iris-ciliary body, Mean: after the second paracentesis
Experimental: as §1
The activity of MPO was measured as previously described by Williams et al. The iris-ciliary bodies were carefully dried, weighed and immersed in 1 ml of hexa-decyl-trimethyl-ammonium bromide solution. Then, the samples were sonicated for 10 sec on ice by a ultrasound homogenizer (HD 2070, Bandelin electronic), freeze-thawed three times, sonicated for 10 sec and centrifuged at 14,000 g for 10 min to remove cellular debris. An aliquot of the supernatant (40-200 μl) was diluted to 3 ml with the o-dianisidine 2HCl/H2O2 solution. The change in absorbance at 460 nm was continuously monitored for 5 min by a spectrophotometer (UV/Vis Spectrometer Lambda EZ 201; Perkin Elmer). The slope of the line (Δ/min) was determined for each sample and used to calculate the number of units of MPO in the tissue as follows:
were ε=11.3 mM^−1. Values were expressed as units of MPO/g of tissue.
as §2

[6] = tested on: leukocytes (PMN); assay: Leukocytes (PMN) measurement in aqueous humor, rabbit paracentesis model; conditions: second paracentesis; for PMN in aqueous humor: individual eyes
Experimental: as §1
For the determination of the number of leukocytes we used a haemocytometer (Improved Neubauer Chamber; Bright-line. Hausser Scientific) and a Polyvar 2 microscope (Reichert-Jung).
as §2

[7] = tested on: New Zealand White rabbits
Experimental: On Days 1-31, animals received daily topical doses of the appropriate test article into the right eye. Animals were dosed four times per day, with doses administered 2 hours apart. Doses were administered using a calibrated 50-μL pipette. The eyelids were held close for 10 seconds immediately following dosing. The time of each dose administration was recorded.
Animals determined to be moribund were euthanized with an intravenous injection of commercial euthanasia solution.

[8] = 1 mg/g BOL-303242-X (0.05 mg/dose) topical 4 x daily, individual rabbit, Group D
[9] = 0.5% topical formulation, +115 min, 8 eyes
[10] = 5 mg/g BOL-303242-X ([…]) topical 4 x daily, individual rabbits, Group C

For CC(C(=O)O)c1ccc(-c2ccccc2)c(F)c1 (stereo not drawn) [F, flurbiprofen, reference compound], the “Clinical Score −5 min” value ([1]; 0.03% topical formulation) was 0, the “Clinical Score +115 min” value ([1]; 0.03% topical formulation) was 2 and the “Clinical score as percentage of eyes, Score (%) 2” value ([1]; 0.03% topical formulation, +115 min, 8 eyes) was 100%. For the same compound, the “Clinical Score −180 min” value ([1]; 0.03% topical formulation) was 0, the “Clinical score as percentage of eyes, Score (%) 0” value ([1]; 0.03% topical formulation, −5 min, 8 eyes) was 100% and the “Clinical score as percentage of eyes, Score (%) 0” value ([1]; 0.03% topical formulation, −180 min (basal), 8 eyes) was 100%. The “Protein in aqueous humor, statistical significance vs CTR” value ([2]; 0.03% topical formulation, p<0.001) was “statistical significance”, the “Protein in aqueous humor, Mean” value ([2]; 0.03% topical formulation) was 20.910 mg/mL and the “Protein in aqueous humor” value ([2]; 0.03% topical formulation) was 20.78 mg/mL and 28.80 mg/mL and 23.41 mg/mL and 20.21 mg/mL and 17.53 mg/mL and 15.12 mg/mL and 20.52 mg/mL. For the same compound, the “Pupillary diameter T2: −5 min” value ([3]; 0.03% topical formulation) was 6.0 mm (3×) and 6.5 mm (3×) and 7.0 mm and 5.5 mm, the “Pupillary diameter T3: +115 min” value ([3]; 0.03% topical formulation) was 4.0 mm and 3.5 mm and 5.5 mm (2×) and 5.0 mm (2×) and 4.5 mm and 6.0 mm and the “Pupillary diameter Δ(T3 − T1)” value ([3]; 0.03% topical formulation) was −1.0 mm (3×) and −1.5 mm (3×) and 0.0 mm (2×). For the same compound, the “Pupillary diameter T1: −180 min” value ([3]; 0.03% topical formulation) was 5.0 mm (2×) and 7.0 mm and 6.0 mm (4×) and 5.5 mm, the “PGE2 in aqueous humor, statistical significance versus CTR” value ([4]; 0.03% topical formulation) was “statistically significant versus CTR” and the “PGE2 in aqueous humor, Mean” value ([4]; 0.03% topical formulation) was 1.189 ng/mL. The “PGE2 in aqueous humor” value ([4]; 0.03% topical formulation) was 1.04 ng/ml and 0.75 ng/ml and 0.85 ng/ml and 1.11 ng/ml and 2.11 ng/ml (2×) and 0.93 ng/ml and 0.61 ng/ml, the “MPO Unit/g” value ([5]; 0.03% F) was 1.10 Unit/g and 1.70 Unit/g and 0.34 Unit/g and 0.75 Unit/g and 0.74 Unit/g and 0.63 Unit/g and 0.73 Unit/g and 1.27 Unit/g and the “MPO activity in iris-ciliary body, Mean” value ([5]; 0.03% topical formulation) was 0.906 MPO Unit/g. For the same compound, the “PMN in aqueous humor, Mean” value ([6]; 0.03% topical formulation) was 30.000 number/μl and the “PMN in aqueous humor” value ([6]; 0.03% topical formulation) was 50 number/μl and 40 number/μl (2×) and 20 number/μl (2×) and 10 number/μl and 30 number/μl.

Cc1ccc2c(NC[C@](O)(CC(C)(C)c3cc(F)cc4c3OCC4)C(F)(F)F)cccc2n1 [BOL-303242 X] was tested, and the “Day of Death (day euthanized or found dead)” value [7, 8] was 29 and the “Recorded Notes (mortality)” value [7, 8] was “Found dead”.

CCOC(=O)O[C@]1(C(=O)OCCl)CC[C@H]2[C@@H]3CCC4=CC(=O)C=C[C@]4(C)[C@H]3[C@@H](O)C[C@@]21C [LE, loteprednol etabonate, reference compound] was tested, and the “Clinical Score −5 min” value ([1]; 0.5% topical formulation) was 0, the “Clinical Score +115 min” value ([1]; 0.5% topical formulation) was 2 (2×) and 1 (6×) and the “Clinical score as percentage of eyes, Score (%) 1” value [1, 9] was 75%. For the same compound, the “Clinical score as percentage of eyes, Score (%) 2” value [1, 9] was 25%, the “Clinical Score −180 min” value ([1]; 0.5% topical formulation) was 0 and the “Clinical score, difference versus CTR” value ([1]; 0.5% topical formulation, p<0.05) was “significant difference versus CTR”. The “Clinical score as percentage of eyes, Score (%) 0” value ([1]; 0.5% topical formulation, −5 min, 8 eyes) was 100%, the “Clinical score as percentage of eyes, Score (%) 0” value ([1]; 0.5% topical formulation, −180 min (basal), 8 eyes) was 100% and the “Protein in aqueous humor, Mean” value ([2]; 0.5% topical formulation) was 33.905 mg/mL. The “Protein in aqueous humor” value ([2]; 0.5% topical formulation) was 36.14 mg/mL and 39.10 mg/mL and 34.69 mg/mL and 26.10 mg/mL and 26.30 mg/mL and 28.16 mg/mL and 40.90 mg/mL and 39.85 mg/mL, the “Pupillary diameter T2: −5 min” value ([3]; 0.5% topical formulation) was 6.0 mm (3×) and 6.5 mm (5×) and the “Pupillary diameter T3: +115 min” value ([3]; 0.5% topical formulation) was 4.5 mm and 5.0 mm (2×) and 5.5 mm (2×) and 6.0 mm (3×). The “Pupillary diameter Δ(T3 − T1)” value ([3]; 0.5% topical formulation) was −1.5 mm (2×) and −1.0 mm (3×) and 0.0 mm and −0.5 mm (2×), the “Pupillary diameter T1: −180 min” value ([3]; 0.5% topical formulation) was 6.0 mm (3×) and 6.5 mm (5×) and the “PGE2 in aqueous humor, statistical significance versus CTR” value ([4]; 0.5% topical formulation) was “statistically significant versus CTR”. For the same compound, the “PGE2 in aqueous humor, Mean” value ([4]; 0.5% topical formulation) was 0.672 ng/mL, the “PGE2 in aqueous humor” value ([4]; 0.5% topical formulation) was “^2N/D and 0.23 ng/ml and 0.68 ng/ml and 1.10 ng/ml” and the “MPO Unit/g” value ([5]; 0.5% LE) was 0.30 Unit/g and 0.51 Unit/g and 0.81 Unit/g and 0.60 Unit/g and 0.73 Unit/g and 1.01 Unit/g. For the same compound, the “MPO activity in iris-ciliary body, Mean” value ([5]; 0.5% topical formulation) was 0.661 MPO Unit/g, the “PMN in aqueous humor, Mean” value ([6]; 0.5% topical formulation) was 28.333 number/μl and the “PMN in aqueous humor” value ([6]; 0.5% topical formulation) was 40 number/μl (2×) and 20 number/μl (3×) and 30 number/μl.

With Cc1ccc2c(NC[C@](O)(CC(C)(C)c3cc(F)cc4c3OCC4)C(F)(F)F)cccc2n1 [BOL-30324 2-X] the “Day of Death (day euthanized or found dead)” value [7, 10] was 17 and the “Recorded Notes (mortality)” value [7, 10] was “Euthanized due to severe diarrhea”.
